According to patent publication US20130203598A1, “USE OF PHOTOSYNTHETIC PIGMENT STABILIZING AGENTS TO REGULATE RIPENING AND QUALITY IN FRUITS AND VEGETABLES” (WASHINGTON STATE UNIVERSITY, priority 2011, published 2013):

Experiments:
d'Anjou pears [1] = experiment: Soluble sugars (% Brix) of d'Anjou pears treated on trees before harvest, after commercial controlled atmosphere storage; type: in vivo, d'Anjou pear (Pyrus communis); conditions: application before harvest, after CA storage (FIGS. 2 and 3)
Procedure: FIG. 2. Percent Brix of Bluestim™-treated pears after CA storage. Percent Brix were measured for all pear treatments after they were removed from the commercial CA storage conditions. FIG. 3. Fruit pressure of Bluestim™ (glycine betaine)-treated and untreated d'Anjou pears. D'Anjou pears were treated on trees with Bluestim™ concentrations of 0 and 7.5 lbs/acre before harvest. Pears were harvested during the fall and stored in commercial controlled atmosphere (CA) facilities. Pears were removed from storage approximately 3 months later. Fruit firmness and % Brix were measured approximately 1 month after removal from storage. In one embodiment, the methods of the invention are carried out before a fruit is “ripe”, i.e. before the fruit has a soluble solids content or “SSC” (which generally corresponds to sugar content) that is generally recognized in the art as suitable for a fruit of interest. […] Percent sugar content is typically measured, for example, in degrees Brix (symbol °Bx) which is the sugar content of an aqueous solution. […] Those of skill in the art will recognize that typical Brix values for fruit and vegetables to which glycine betaine is applied as described herein will vary widely depending on the type of fruit or vegetable, and will be able to readily able to determine suitable values. […]

[2] = use on comestible substances, consumption by humans or other animals; cited from earlier work
d'Anjou pears [3] = experiment: Fruit firmness (pressure) of d'Anjou pears treated on trees before harvest, after commercial controlled atmosphere storage; type: in vivo, d'Anjou pear (Pyrus communis)
Procedure: FIG. 1. Fruit pressure of Bluestim™ (glycine betaine)-treated and untreated d'Anjou pears. D'Anjou pears were treated on trees with Bluestim™ concentrations of 0, 2.5, 5, and 10 lbs/acre on Aug. 17, 2010. Pears were harvested on 9/20/2010 and stored in commercial controlled atmosphere (CA) facilities. Pears were removed from storage on Jan. 7, 2011.
FIG. 3. Fruit pressure of Bluestim™ (glycine betaine)-treated and untreated d'Anjou pears. D'Anjou pears were treated on trees with Bluestim™ concentrations of 0 and 7.5 lbs/acre before harvest. Pears were harvested during the fall and stored in commercial controlled atmosphere (CA) facilities. Pears were removed from storage approximately 3 months later. Fruit firmness and % Brix were measured approximately 1 month after removal from storage.
In addition, the degree of firmness and/or lack thereof may be used as an indicator of ripeness. Fruit firmness is generally measured as kg/cm^−2 and suitable ranges of firmness values for unripened and ripe fruit and vegetables are well-known to those of skill in the art. Firmness may be measured using a variety of instruments such as various fruit firmness testers, force gauges, etc.

## C[N+](C)(C)CC(=O)O [glycine betaine, N,N,N-trimethylglycine]
d'Anjou pears [1]
  soluble sugars measured in % BRIX: decrease in soluble sugars measured in % BRIX in a dose dependent manner
[2]
  toxicity: non-toxic
d'Anjou pears [3]; application before harvest, 2.5, 5, 10 or 7.5 lbs/acre, same post-harvest storage conditions (FIGS. 1 and 3)
  fruit firmness compared to untreated pears: firmer pears compared to untreated pears
d'Anjou pears [3]; application before harvest, 10 lbs/acre is the highest dose
  fruit firmness, dose dependence: increased the fruit firmness in a dose dependent manner, with applications of 10 lbs/acre yielding the firmest pears
d'Anjou pears [3]; treated pears as time passes after treatment
  reversibility of the effect on firmness and % BRIX as time passes: soften and exhibit increases in % BRIX, indicating that the effect is temporary
